From US10757943B2, “Thidiazuron mixtures and uses thereof” (Valent BioSciences LLC, priority 2017, dated 2020)

Legend:
Format in all cases: in vivo
[1] = test system: Concord grape vines; assay: Bud break and harvest weight of endo-dormant two-year-old Concord grape vines in the greenhouse (Example 4); conditions: thidiazuron ppm and 17-0-0 % as in label, 15-0-0 65,880 ppm; for Fresh Shoot Weight (g)/Plant: new growth at close of study
Description: Two-year-old Concord grape vines were purchased commercially. These vines had just lost their leaves and were shipped shortly after they were dug at the nursery. Thus, the vines had not fulfilled their chilling requirement and were considered endo-dormant. The vines were potted individually into one-gallon pots containing ProMix® BX immediately upon receipt and subsequently pruned back to the five proximal buds on the one-year old wood. Within two hours of pruning, treatment solutions were applied using a foam paint brush to the remaining one-year old wood, including the cut end from pruning. Two treatments, water and hydrogen cyanimide, which acted as negative and positive controls, respectively, were included in all studies.
Treatment solutions were made fresh in water and contained 1% (v/v) non-ionic surfactant. In all cases, two treatment solutions were applied to the plants. Where a single component was used for a treatment, the first application solution was water containing surfactant; in the cases where combination treatments were made to the same plant, the first treatment solution was allowed to dry prior to applying the second.
The treated plants were kept in a conventional greenhouse under supplemental lighting. Greenhouse conditions were 65:60° F. Day:Night temperature with a 16:8 hour photoperiod. Relief from dormancy was assessed every two days during the course of the study. Dormancy was considered relieved upon the emergence of a green bud. Both the number of ‘broken buds’ per plant and the date of relief of plants from dormancy were assessed. At the close of the study, new growth was removed from each of the treated plants and weighed.

[2] = test system: Red Flame seedless grape vines; assay: Bud break and shoot length of field-grown Red Flame seedless grape vines (Example 2); conditions: for Broken Buds per plant (Average Buds Broken per Spur): 31 days after treatment; for % Broken Buds / Total Shoot Length: 48 days after treatment
Experimental: To assess the ability of mixtures of the invention to promote and synchronize bud break these mixtures were applied to field-grown Red Flame seedless grape vines and examined for bud break (initiation of growth) and subsequent shoot development. Thidiazuron, hydrogen cyanamide, 17-0-0 fertilizer, and mixtures thereof were each applied individually or sequentially (co-applied) to the separate spurs of Red Flame seedless grape vines. Plants were evaluated for bud break at 31 days after treatment, for percent bud break and total new shoot length at 48 days after treatment. Results of these evaluations can be seen below in Tables 4 and 5.

[3] = test system: Concord grape vines; assay: Bud break and shoot growth of potted dormant Concord grape vines in the greenhouse (Example 1); conditions: for % bud break (vines with at least one bud break): hydrogen cyanamide 10,000 ppm, 17-0-0 197,100 ppm, 15-0-0 239,060 ppm, ACC 1,000 ppm; for % bud break (vines with at least one bud break) / 50% Bud Break to Harvest / Initial to 50% Bud Break / 25% Bud Break (DAT) / 50% Bud Break (DAT): thidiazuron 300 ppm unless label states other; for Dry Weight (g)/25% Bud Break to Harvest (d): combined shoot dry weight at 49 DAT normalised by days from 25% bud break to harvest; for Dry Weight (g)/50% Bud Break to Harvest (d): combined shoot dry weight at 49 DAT normalised by days from 50% bud break to harvest; for Fresh Weight (g)/50% Bud Break to Harvest (d): combined shoot fresh weight at 49 DAT normalised by days from 50% bud break to harvest; for 50% Bud Break to Harvest: harvest at day 49; for Initial to 50% Bud Break: synchrony of bud break; for 25% Bud Break (DAT): time to 25% bud break; for 50% Bud Break (DAT): time to 50% bud break
Description: An aqueous 50% hydrogen cyanamide solution (Sigma-Aldrich, St. Louis, Mo. USA) was used as the source of hydrogen cyanamide. The commercial product, Dormex® contains 50% hydrogen cyanamide (w/v) in water.
Erger® was used as the source of 15-0-0 fertilizer. (Erger is a registered trademark of Valagro S.P.A., Italy and is available from Helena Chemical Company, Collierville, Tenn., USA). Erger® contains 15% total nitrogen as 3.1% ammoniacal nitrogen, 5.8% nitrate nitrogen and 6.1% urea nitrogen and 3.3% calcium derived from ammonium nitrate, calcium nitrate and urea. As used herein, the term “15-0-0 fertilizer” refers to the Erger® formulation above and all formulations described in International PCT application publication WO/2001/037653A2 by Valagro S.P.A., Italy, which is incorporated, herein, in its entirety.
CAN-17 was used as the source of 17-0-0 fertilizer. CAN-17 contains 17% total nitrogen as 4.6% ammonium nitrogen and […] nitrate nitrogen and 1.3% urea nitrogen and 8.8% calcium derived from ammonium nitrate and calcium nitrate. CAN-17 is available from J.R. Simplot Company (Boise, Id., USA).
To assess the ability of mixtures of the invention to promote and synchronize bud break these mixtures were applied to Concord grape vines and examined for bud break (initiation of growth) and subsequent shoot development. Specifically, 1 year old dormant bare rooted Concord grape vines were planted in pots containing Pro-Mix® BX potting soil (Pro-Mix is a registered trademark of and available from Premier Horticulture Ltd.) and pruned to 5 nodes on a single shoot. Aqueous solutions of thidiazuron, hydrogen cyanamide, 15-0-0 fertilizer, 17-0-0 fertilizer and 1-aminocyclopropane-1-carboxylic acid (“ACC”), and mixtures thereof were each applied individually or sequentially or co-applied to the first-year wood of separate Concord grape vines. Plants were grown in the greenhouse for 49 days and evaluated for percent of vines showing bud break, or relief from dormancy, periodically between 7 days and the conclusion of the experiment. […] At 49 days after treatment (DAT), the plants were sacrificed and measured for total number of flower clusters, total new shoot length, longest new shoot, combined new shoot fresh weight and combined new shoot dry weight. New shoot growth is the growth arising from the dormant buds not including the woody growth that was planted and gave rise to the new growth.
Synergy is calculated by the Abbott method: %Cexp=A+B−(AB/100), where % Cexp is the expected efficacy and in which A and B are the speed of bud break or shoot length or shoot weight given by the single active ingredients. If the ratio between the experimentally observed efficacy of the mixture Cobs and the expected efficacy of the mixture is greater than 1, synergistic interactions are present in the mixture” (Gisi, Synergistic Interaction of Fungicides in Mixtures, The American Phytopathological Society, 86:11, 1273-1279,1996).

[4] = hydrogen cyanamide 10,000 ppm, thidiazuron 300 ppm, 17-0-0 197,100 ppm
[5] = 49 days post treatment, thidiazuron ppm as in label, other concentrations as in Table 1, listed as Thidiazuron (300)
[6] = 49 days post treatment, thidiazuron ppm as in label, other concentrations as in Table 1, listed as Thidiazuron (1000)
[7] = other concentrations as in Table 1, listed as Thidiazuron (1000)
[8] = other concentrations as in Table 1
[9] = other concentrations as in Table 1, listed as 1,000 ppm thidiazuron

O=C(Nc1ccccc1)Nc1cnns1 [Thidiazuron, 1-Phenyl-3-(1,2,3-thiadiazol-5-yl)urea]
Fresh Shoot Weight (g)/Plant ([1]; listed as Thidiazuron (100)): 15.53 g
Fresh Shoot Weight (g)/Plant ([1]; listed as Thidiazuron (300)): 13.15 g
Fresh Shoot Weight (g)/Plant ([1]; listed as Thidiazuron (1000)): 22.45 g
50% Bud Break (DAT) ([1]; listed as Thidiazuron (100)): 33 DAT
100% Bud Break (DAT) ([1]; listed as Thidiazuron (100)): 44 DAT
Initial to 50% Bud Break ([1]; listed as Thidiazuron (100)): 7
Number of Buds Broken/Plant ([1]; listed as Thidiazuron (100)): 2
50% Bud Break (DAT) ([1]; listed as Thidiazuron (300)): 28 DAT
100% Bud Break (DAT) ([1]; listed as Thidiazuron (300)): 48 DAT
Initial to 50% Bud Break ([1]; listed as Thidiazuron (300)): 14
Number of Buds Broken/Plant ([1]; listed as Thidiazuron (300)): 2.125
50% Bud Break (DAT) ([1]; listed as Thidiazuron (1000)): 21 DAT
100% Bud Break (DAT) ([1]; listed as Thidiazuron (1000)): 37 DAT
Initial to 50% Bud Break ([1]; listed as Thidiazuron (1000)): 7
Number of Buds Broken/Plant ([1]; listed as Thidiazuron (1000)): 4.5
Broken Buds per plant (Average Buds Broken per Spur) [2, 4]: 0.1
Broken Buds per plant (Average Buds Broken per Spur) ([2]; thidiazuron 1,000 ppm): 0.4
% Broken Buds [2, 4]: 80%
Total Shoot Length [2, 4]: 15.38
% Broken Buds ([2]; thidiazuron 1,000 ppm): 78.1%
Total Shoot Length ([2]; thidiazuron 1,000 ppm): 24.3
% bud break (vines with at least one bud break) ([3]; 7 DAT): 0%
% bud break (vines with at least one bud break) ([3]; 10 DAT): 0.0%
% bud break (vines with at least one bud break) ([3]; 10 DAT, listed as Thidiazuron (1,000)): 44.4%
% bud break (vines with at least one bud break) ([3]; 13 DAT): 0.0%
% bud break (vines with at least one bud break) ([3]; 13 DAT, listed as Thidiazuron (1,000)): 77.8%
% bud break (vines with at least one bud break) ([3]; 15 DAT): 0.0%
% bud break (vines with at least one bud break) ([3]; 15 DAT, listed as Thidiazuron (1,000)): 88.9%
% bud break (vines with at least one bud break) ([3]; 17 DAT): 11.1%
% bud break (vines with at least one bud break) ([3]; 17 DAT, listed as Thidiazuron (1,000)): 88.9%
% bud break (vines with at least one bud break) ([3]; 20 DAT): 11.1%
% bud break (vines with at least one bud break) ([3]; 20 DAT, listed as Thidiazuron (1,000)): 100.0%
% bud break (vines with at least one bud break) ([3]; 22 DAT): 22.2%
% bud break (vines with at least one bud break) ([3]; 22 DAT, listed as Thidiazuron (1,000)): 100.0%
% bud break (vines with at least one bud break) ([3]; 24 DAT): 33.3%
% bud break (vines with at least one bud break) ([3]; 24 DAT, listed as Thidiazuron (1,000)): 100.0%
% bud break (vines with at least one bud break) ([3]; 27 DAT): 33.3%
% bud break (vines with at least one bud break) ([3]; 27 DAT, listed as Thidiazuron (1,000 ppm)): 100.0%
% bud break (vines with at least one bud break) ([3]; 29 DAT): 33.3%
% bud break (vines with at least one bud break) ([3]; 29 DAT, listed as Thidiazuron (1,000 ppm)): 100.0%
% bud break (vines with at least one bud break) ([3]; 31 DAT): 33.3%
% bud break (vines with at least one bud break) ([3]; 31 DAT, listed as Thidiazuron (1,000 ppm)): 100.0%
% bud break (vines with at least one bud break) ([3]; 34 DAT): 33.3%
% bud break (vines with at least one bud break) ([3]; 34 DAT, listed as Thidiazuron (1,000 ppm)): 100.0%
% bud break (vines with at least one bud break) ([3]; 36 DAT): 44.4%
% bud break (vines with at least one bud break) ([3]; 36 DAT, listed as Thidiazuron (1,000 ppm)): 100.0%
% bud break (vines with at least one bud break) ([3]; 38 DAT): 55.6%
% bud break (vines with at least one bud break) ([3]; 38 DAT, listed as Thidiazuron (1,000 ppm)): 100.0%
% bud break (vines with at least one bud break) ([3]; 41 DAT): 55.6%
% bud break (vines with at least one bud break) ([3]; 41 DAT, listed as Thidiazuron (1,000 ppm)): 100.0%
% bud break (vines with at least one bud break) ([3]; 43 DAT): 66.7%
% bud break (vines with at least one bud break) ([3]; 43 DAT, listed as Thidiazuron (1,000 ppm)): 100.0%
% bud break (vines with at least one bud break) ([3]; 49 DAT): 77.8%
% bud break (vines with at least one bud break) ([3]; 49 DAT, listed as Thidiazuron (1,000 ppm)): 100.0%
Total # of Flower Clusters ([3]; 49 days post treatment, thidiazuron ppm as in label, other concentrations as in Table 1): 0.1
Combined Shoot Dry Weight [3, 5]: 1.5 g
Combined Shoot Fresh Weight [3, 5]: 8.2 g
Longest Shoot Length [3, 5]: 20.1 cm
Total Shoot Length [3, 5]: 28.3 cm
Combined Shoot Dry Weight [3, 6]: 6.9 g
Combined Shoot Fresh Weight [3, 6]: 31.8 g
Longest Shoot Length [3, 6]: 68.3 cm
Total Shoot Length [3, 6]: 88.8 cm
Dry Weight (g)/25% Bud Break to Harvest (d) ([3]; listed as Thidiazuron (300)): 0.06 g/day
Dry Weight (g)/25% Bud Break to Harvest (d) ([3]; listed as Thidiazuron (1000)): 0.17 g/day
Dry Weight (g)/50% Bud Break to Harvest (d) ([3]; listed as Thidiazuron (300)): 0.13 g/day
Dry Weight (g)/50% Bud Break to Harvest (d) ([3]; listed as Thidiazuron (1000)): 0.18 g/day
Fresh Weight (g)/50% Bud Break to Harvest (d) ([3]; listed as Thidiazuron (300)): 0.68 g/day
Fresh Weight (g)/50% Bud Break to Harvest (d) ([3]; listed as Thidiazuron (1000)): 0.84 g/day
50% Bud Break to Harvest ([3]; other concentrations as in Table 1, listed as Thidiazuron (300)): 12 days
50% Bud Break to Harvest [3, 7]: 38 days
50% Bud Break to Harvest ([3]; other concentrations as in Table 1, listed as thidiazuron): 12 days
Initial to 50% Bud Break [3, 8]: 21 days
Initial to 50% Bud Break [3, 9]: 3 days
Initial to 50% Bud Break [3, 7]: 3 days
25% Bud Break (DAT) [3, 8]: 23 DAT
25% Bud Break (DAT) [3, 7]: 9 DAT
50% Bud Break (DAT) [3, 8]: 37 DAT
50% Bud Break (DAT) [3, 9]: 11 DAT
50% Bud Break (DAT) [3, 7]: 11 DAT
